Assay results published in patent publication US20110236859A1, “ORAL CARE COMPOSITION CONTAINING OXIDASE ENZYME” (priority 2009, published 2011).

Experiment: Glucose oxidase binding to saliva-coated hydroxyapatite disks (Amplex Red horseradish peroxidase coupled assay)
Protocol: Glucose oxidase binding to saliva coated hydroxyappetite disks is measured using a fluorescent (Amplex Red) horseradish peroxidase coupled assay directly from the disk surface.
Hydroxyapatite (HAP) disks coated with saliva are commonly used as models of a tooth surface.
Saliva was collected from 3-5 donors, clarified by centrifugation, and added to cover HAP disks (5 mm×2.0 mm Clarkson Chromatography) in a covered plastic tray. The disks were incubated with the saliva overnight, with gentle shaking, at room temperature. The disks were rinsed twice with 50 mM phosphate buffer prior to use in the binding assay. Varying concentrations of glucose oxidase (50-650 mU/ml) were added to the saliva-coated HAP disks in the presence of sorbitol (0.8-8%) or polyethyleneimine (1%). The amount of glucose oxidase retained on the hydroxyapatite disks, following three consecutive washes with phosphate buffered saline, was measured using a fluorescence (Amplex Red, Molecular Probes #A22189) horseradish peroxidase coupled assay, as per manufacturer's recommendation.

For `OC[C@@H](O)[C@@H](O)[C@H](O)[C@@H](O)CO` [sorbitol], the “binding of glucose oxidase to saliva coated hydroxyapatite disks relative to no additive” value (FIG. 1, additive sorbitol 8, 0.8, 0.08%, fluorescent Amplex Red HRP coupled assay from disk surface) was “improve binding relative to no additive” and the “amount of active glucose oxidase detected on the hydroxyapatite” value (at least 0.8% sorbitol, glucose oxidase 50-650 mU/ml, after three washes with phosphate buffered saline) was “increased the amount of active glucose oxidase detected on the hydroxyapatite”.
